Marks after values point to notes of the source that are not given here.
Assays:
[1] = Resistance of chelator-bound iron(III) to chemical reduction by dithionite; format: physicochemical; settings: 0.1 M MOPS, pH 7.4
Description: Chemical reduction of iron from Fe(III) to Fe(II) is part of the chemical reductive cycling of iron that drives ROS production in and around cells and also facilities removal of iron from intracellular stores for use elsewhere in the body. Generally iron in extracellular compartments of the body is in the Fe(III) form this helping to limit iron related toxic reactions as free Fe(II) would quickly oxidize to Fe(III) and this could drive, for example, ROS production. Thus, the relative ability of an iron chelator to hold Fe(III) and resist its reduction to Fe(II) would have benefits. Correspondingly, the relative chemical reducibility of Fe(III) to Fe(II) as bound by deferiprone, MAHMP and DIBI was tested. The different iron loaded chelators were first prepared so that iron only sufficient to ensure initial presence of fully coordinated iron(III) was used, i.e. a ratio of three chelator molecules of either deferiprone or MAHMP to each iron(III) atom present. DIBI with its measured MAHMP content was also similarly loaded with iron added just sufficient to satisfy its MAHMP iron binding sites on a similar basis. The iron-chelates were then reacted with dithionite (DT, [S2O4]^2−) a chemical reductant for iron and the relative changes in absorbance intensity at 460 nm was used to monitor for iron reduction with results as shown in FIG. 2.

[2] = Iron(III) binding affinity by NaOH titration with UV-vis spectra (HypSpec2014); settings: 25° C.
Description: The titrations were carried out under a wet nitrogen atmosphere to avoid concentration changes due to evaporation. Aliquots of each complex solution were taken periodically during the titration and the UV-vis spectra of the aliquots were collected as a batch once the titration was completed. The pH range studied spanned the equilibrium between bis and tris coordination for the ligands as these are the only two species expected at physiological pH. For Fe3-DIBI the spectra were collected 24 h after collecting the batch of aliquots. The spectra were processed using HypSpec2014 to determine the iron(III) binding affinity of […] and deferiprone (DFP) as reference as summarized in Table 7.

ferroportin = molecular target: T1, ferroportin (Homo sapiens, UniProt Q9NP59); settings: clinical testing, advanced to phase II; cited from earlier work
T1 sequence (Q9NP59 1-571): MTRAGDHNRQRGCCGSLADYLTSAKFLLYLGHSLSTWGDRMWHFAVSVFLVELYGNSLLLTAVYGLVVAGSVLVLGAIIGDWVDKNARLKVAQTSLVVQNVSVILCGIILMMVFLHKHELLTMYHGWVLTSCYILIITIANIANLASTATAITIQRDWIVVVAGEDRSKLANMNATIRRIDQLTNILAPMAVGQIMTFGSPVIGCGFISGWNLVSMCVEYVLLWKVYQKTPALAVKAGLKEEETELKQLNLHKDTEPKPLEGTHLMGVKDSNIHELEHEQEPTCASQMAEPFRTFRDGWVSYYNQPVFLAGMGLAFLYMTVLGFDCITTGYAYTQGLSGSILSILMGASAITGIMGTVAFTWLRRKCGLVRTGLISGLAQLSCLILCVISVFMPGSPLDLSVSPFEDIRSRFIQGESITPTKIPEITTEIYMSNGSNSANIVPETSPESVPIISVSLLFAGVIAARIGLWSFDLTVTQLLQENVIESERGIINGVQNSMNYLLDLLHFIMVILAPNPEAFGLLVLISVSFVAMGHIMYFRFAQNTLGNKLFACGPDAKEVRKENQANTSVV

fungi = settings: cited from earlier work
Gram positive bacteria = settings: cited from earlier work
Gram negative bacteria = settings: cited from earlier work
[3] = cited from earlier work
microbial growth = settings: cited from earlier work
[4] = test system: cells challenged with high-glucose; settings: cited from earlier work
[5] = doxorubicin-induced mouse model; cited from earlier work
ferroptosis = settings: cited from earlier work
[6] = in vivo; cited from earlier work
[7] = clinical trials; cited from earlier work
[8] = Approx, based on close analogue 36 and FBS0701; cited from earlier work

Row | SMILES | MIC fungi (fungi) | MIC Gram positive bacteria (Gram positive bacteria) | MIC Gram negative bacteria (Gram negative bacteria) | Hydrophobicity/ hydrophilicity log P [3] | Antimicrobial activity (microbial growth) | cell viability [4] | also measured
1 | C=C(C)C(=O)NCCn1ccc(=O)c(O)c1C [MAHMP] |  |  |  |  |  |  | reduction of bound iron(III) by dithionite (intensity of 460 nm band) [1]: The same reaction was observed; Log β1 iron binding formation constant [2]: 15.01(1); Log β2 iron binding formation constant [2]: 27.9(1); Log β3 iron binding formation constant [2]: 38.22(6)
2 | O=C(NCc1ncccc1F)c1coc(CCNCCc2nc3ccccc3[nH]2)n1 [VIT-2763] |  |  |  |  |  |  | lowering serum iron levels (ferroportin): good potential for lowering serum iron levels; toxicity (ferroportin): low toxicity
3 | Cc1c(O)c(=O)ccn1C [Deferiprone] | 1151^n μM | 575^e μM | 287^k μM | −0.8 ^b | Very Low |  | reduction of bound iron(III) by dithionite (intensity of 460 nm band) [1]: readily reduced; Log β1 iron binding formation constant [2]: 15.01(1); Log β2 iron binding formation constant [2]: 27.5(7); Log β3 iron binding formation constant [2]: 36.7(1)
4 | CCOC(=O)c1ccc(NC2CCCCC2)c(N)c1 [ferrostatin-1] |  |  |  |  |  | rescued cell viability | cardiac function [5]: improved cardiac function; mortality [5]: reduced mortality
5 | O=c1c(O)c(-c2ccc(O)c(O)c2)oc2cc(O)cc(O)c12 [quercetin] |  |  |  |  |  | rescued cell viability | 
6 | CC(=O)N(O)CCCCCNC(=O)CCC(=O)N(O)CCCCCNC(=O)CCC(=O)N(O)CCCCCN [Deferoxamine] | >228^n μM | >913^k μM | >913^k μM | −3 ^b | Poor, | rescued cell viability | effect on ferroptosis (ferroptosis): suppression; infections in test animals [6]: fatal infections
7 | O=C(O)c1ccc(-n2nc(-c3ccccc3O)nc2-c2ccccc2O)cc1 [Deferasirox] | 67^p μM | 21^l μM | 133^m μM | 4.3 ^b | Low |  | 
8 | O=C([O-])CN(CC(=O)[O-])CC(=O)[O-].[Fe+3] [ferric-nitriloacetate (NTA), ferric-nitriloacetate] |  |  |  |  |  |  | effect on ferroptosis (ferroptosis): promote ferroptosis and renal carcinoma
9 | COCCOCCOc1ccc(C2=N[C@@](C)(C(=O)O)CS2)c(O)c1 [SP-420] |  |  |  | −0.89 |  |  | renal toxicity [7]: undesirable renal toxicity; Fe binding constant log K [8]: 33.1-33.4

— patent US20250205275A1, “POLYMERIC IRON BINDING COMPOSITIONS AND METHODS OF USE FOR TREATING DISEASES ASSOCIATED WITH EXCESS DAMAGING REACTIVE IRON” (Fe Pharmaceuticals (Canada) Inc., priority 2022, published 2025)
